Patent EP4700025A1, “AMIDE COMPOUND, PHARMACEUTICAL COMPOSITION COMPRISING SAME, AND USE THEREOF” (Suzhou Genhouse Bio Co., Ltd., priority 2023, dated 2024)
Read-outs that look alike come from different tables or passages of the source.

Key:
PRMT5 = PRMT5 (Homo sapiens, UniProt O14744); test: Inhibitory activity against enzymatic activity of PRMT5 (fluorescence polarization); type: biochemical; details: PRMT5 25 nM, SAM 1 µM, polypeptide 1 µM, MTA 2 µM; 37 °C 2 hours
Procedure: The compounds were prepared into 10 mM stock solutions using DMSO, and then 9 concentration gradients (with an initial concentration of 10 µM followed by 1:5 dilution) were prepared using a buffer (50 mM Tris-HCl pH 8.5, 5 mM MgCl2, 4 mM DTT, 0.01% Triton X-100, 0.1 M NaCl, 0.5% DMSO), and each well received 5 µL of the diluted compound solutions. SAM, a polypeptide, and MTA were prepared using a buffer to final concentrations of 1 µM, 1 µM, and 2 µM, respectively, and were added to each well in a total of 5 µL. Meanwhile, an MTA-free group was set as a control. […] Subsequently, a mixture of 2.5 µL of stop buffer A, 2.5 µL of an 8× MT assay mixture (final concentration: 1×), and 24 µg/mL AMP2/GMP2 antibodies (final concentration: 3 µg/mL) was added. The resulting mixture was incubated at room temperature for 1.5 hours, and fluorescence polarization (FP) was measured (Ex 633, Em 647). Meanwhile, negative control wells without protein (Blank) and positive control wells without compound (DMSO) were set. Each experiment was independently repeated three times.
Data processing: The numerical values of each group were recorded for statistical analysis, and the inhibition rate was calculated according to the following formula: inhibition percentage of compound wells (% inh) = [1 - (ave Blank - Cpd well)/(ave Blank - ave DMSO control)] × 100. Note: ave represents the average value, and Cpd represents the numerical value of the wells containing the compound. A sigmoidal dose-inhibition rate curve was plotted and fitted using a nonlinear regression model in the GraphPad Prism 7.0 software, and the IC50 value was calculated. Table 1. Inhibitory activity of compounds against enzymatic activity of PRMT5

HCT-116 = test: CCK8 proliferation inhibition, HCT-116; type: cell-based; details: Homo sapiens, 192 h, CCK8, 8 days after drug treatment
Procedure: (§1) The above normally growing cells were digested with a cell trypsinization solution, centrifuged, counted, and seeded into a 96-well plate at an appropriate cell density (2000 cells/well) at 100 µL/well. The next day after cell seeding, the compounds at different concentrations were added to the wells. Three replicate wells were set for each concentration point, and a corresponding DMSO negative control group was also set. CCK8 solution was added to each well 8 days after drug treatment. The plate was incubated at 37 °C for a period of time (OD450 of the vehicle group reached 1.0 or higher) before the absorbance at 450 nm was read using a microplate reader. The inhibition rates were calculated, and the EC50 values were determined by fitting using the GraphPad Prism 7.0 software. Table 2. EC50 values of compounds at cellular level

HCT-116-MTAP^-/- = test: CCK8 proliferation inhibition, HCT-116-MTAP^-/-; type: cell-based; details: Homo sapiens, 192 h; HCT-116-MTAP^-/- (MTAP-deficient); CCK8, 8 days after drug treatment
Procedure: as §1

A549 = test: CCK8 proliferation inhibition, A549; type: cell-based; details: Homo sapiens, 192 h, CCK8, 8 days after drug treatment
Procedure: as §1

SDMA [1] = test: SDMA Inhibition Assay in HCT-116 cells; type: cell-based; details: Homo sapiens, HCT-116, 96 hours
Procedure: (§2) The next day, the cells were treated with the compounds at different concentrations (with an initial concentration of 10 µM, 5-fold dilution, 9 concentration gradients). After 96 hours, the culture medium was pipetted out and the cells were washed 2 times with 100 µL of PBS. The cells were then fixed with 4% paraformaldehyde and incubated at room temperature for 20 min. The fixative solution was discarded, and the cells were washed with PBS. 150 µL of specialized blocking solution (containing 1% Triton-100) was added to each well for blocking at room temperature for 2 hours, and the plate was washed with PBS to remove excess blocking solution. […] The cells were incubated at 4 °C overnight. The next day, the cells were separately washed 2 times with 1× PBST. […] The cells were incubated at room temperature for 2 hours. The cells were washed 2 times with 1× PBST and 1 time with PBS. Fluorescence signals at 700 nm and 800 nm were separately detected using a Li-COR Odyssey two-color near-infrared laser imager. The inhibition rates were calculated, and the EC50 values were determined by fitting using the GraphPad Prism 7.0 software. Table 3. Inhibition of SDMA by test compounds

SDMA [2] = test: SDMA Inhibition Assay in HCT-116-MTAP^-/- cells; type: cell-based; details: Homo sapiens, 96 hours
Procedure: as §2

SDMA [3] = test: SDMA Inhibition Assay in A549 cells; type: cell-based; details: Homo sapiens, A549, 96 hours
Procedure: as §2

[4] = Pharmacokinetic assay in mice; type: in vivo, Balb/c mice; details: mouse; for MRT inf: read-out: MRT(0-∞)
Procedure: Eighteen male Balb/c mice aged 6 to 8 weeks were randomly divided into 2 groups (IV group and PO group). The corresponding compounds were administered to the animals in the IV group by tail intravenous injection at 2 mg/kg, and the corresponding compounds were administered to the animals in the PO group by oral gavage at 10 mg/kg or 100 mg/kg. The animals in the IV group were allowed free access to food and water, and the animals in the PO group were fasted overnight before administration and were fed 4 h after administration. Throughout the experiment, the animals were allowed free access to water. Plasma samples were separately collected at 0.083 h (only group IV), 0.25 h, 0.5 h, 1 h, 2 h, 4 h, 8 h, and 24 h after administration. About 100 µL of blood was collected from the orbit of the animal, placed into a 1.5 mL anticoagulation centrifuge tube, and centrifuged at 8000 rpm and 4 °C for 10 min. The upper plasma sample was transferred to an EP tube. The plasma samples were stored in a refrigerator at -80 °C until sample analysis. Pharmacokinetic parameters of the drug were calculated based on the drug concentration-time data, including the peak concentration Cmax, peak time Tmax, clearance rate CL, steady state apparent volume of distribution Vss, area under drug-time curve AUC, elimination half-life t1/2, bioavailability, and the like. Data below the 80% lower limit of quantification were excluded from the calculation of pharmacokinetic parameters.

HCT-116-MTAP^-/- cells = test: Pharmacodynamic study, HCT-116-MTAP^-/- subcutaneous xenograft; type: in vivo, mouse; details: HCT-116-MTAP^-/- xenograft, 60 mpk PO QD
Procedure: (§3) Human colon cancer HCT-116-MTAP^-1- cells were cultured in monolayer in vitro using the McCoy 5A culture medium (HyClone) containing 10% fetal bovine serum (BI) and 1% penicillin and streptomycin (Beyotime) in an incubator at 37 °C with 5% CO2. The cells were digested with trypsin 2 to 3 times weekly for passaging. When the saturation degree of the cells was 80% to 90%, the cells were collected, counted, and inoculated. 5 × 10^6 (0.1 mL) HCT-116-MTAP^-/- cells were subcutaneously inoculated on the right back of each mouse. On about day 15 after inoculation of the cells, the mean tumor volume reached 172 mm^3. The mice were randomly grouped for administration (the animals were divided into an administration group and a control group, with 6 animals in each group). The day of grouping was designated as d0, and intragastric administration was started on d1. The administration was performed once daily at an administration volume of 10 mL/kg. Vehicle control was administered to the control group. The tumor volume was measured 2 to 3 times weekly, and meanwhile, the mice were weighed and the data were recorded; daily observations were made to record the body surface signs of the mice. After the experiment was completed, the tumors were collected, weighed, and photographed for recording.
(§4) Calculation formula for tumor volume: Tumor volume (mm^3) = 1/2 × (a×b^2) [formula] (note: a represents long diameter and b represents short diameter) [formula]

NCI-H838 cells = test: Pharmacodynamic study, NCI-H838 subcutaneous xenograft; type: in vivo, mouse
Procedure: as §3, with “non-small cell lung” for “colon”, “NCI-H838” for “HCT-116-MTAP^-1-”, “NCI-H838” for “HCT-116-MTAP^-/-”, “29” for “15”, “156” for “172”
as §4

CYP450 3A4 = target: T1, CYP450 3A4 (Homo sapiens, UniProt P08684); test: Inhibition of human liver microsome CYP450 enzyme 3A4; type: in vitro ADME; details: human, microsomes, pH 7.4
T1 construct: from tissue; host or cells: human liver microsomes
Procedure: 100 mM K-Buffer: 9.5 mL of stock solution A was mixed with 40.5 mL of stock solution B, the total volume was adjusted to 500 mL with ultrapure water, and the buffer was titrated to pH 7.4 with KOH or H3PO4. • Starting material A (1 M potassium dihydrogen phosphate): 136.5 g of potassium dihydrogen phosphate in 1 L of water; • Stock solution B ([…]): 174.2 g of potassium dihydrogen phosphate in 1 L of water.
The test substance powder was prepared into a stock solution at a certain concentration with DMSO or another organic solvent, which was then further diluted with a suitable organic solvent.
The liver microsomal in vitro incubation system for the CYP450 enzyme metabolism phenotype study was a biochemical reaction of the prepared liver microsomes supplemented with a redox coenzyme and an enzyme-specific selective inhibitor under simulated physiological temperature and physiological environment conditions.
The concentration of the parent drug or a metabolite thereof in the incubation solution was determined by LC-MS/MS. and the IC50 value was calculated.

[5] = male, Balb/c, plasma, 2 mg/kg, IV 2mpk
[6] = male, Balb/c, plasma, 10 mg/kg, PO 10mpk

Chain of PRMT5 (O14744 whole entry): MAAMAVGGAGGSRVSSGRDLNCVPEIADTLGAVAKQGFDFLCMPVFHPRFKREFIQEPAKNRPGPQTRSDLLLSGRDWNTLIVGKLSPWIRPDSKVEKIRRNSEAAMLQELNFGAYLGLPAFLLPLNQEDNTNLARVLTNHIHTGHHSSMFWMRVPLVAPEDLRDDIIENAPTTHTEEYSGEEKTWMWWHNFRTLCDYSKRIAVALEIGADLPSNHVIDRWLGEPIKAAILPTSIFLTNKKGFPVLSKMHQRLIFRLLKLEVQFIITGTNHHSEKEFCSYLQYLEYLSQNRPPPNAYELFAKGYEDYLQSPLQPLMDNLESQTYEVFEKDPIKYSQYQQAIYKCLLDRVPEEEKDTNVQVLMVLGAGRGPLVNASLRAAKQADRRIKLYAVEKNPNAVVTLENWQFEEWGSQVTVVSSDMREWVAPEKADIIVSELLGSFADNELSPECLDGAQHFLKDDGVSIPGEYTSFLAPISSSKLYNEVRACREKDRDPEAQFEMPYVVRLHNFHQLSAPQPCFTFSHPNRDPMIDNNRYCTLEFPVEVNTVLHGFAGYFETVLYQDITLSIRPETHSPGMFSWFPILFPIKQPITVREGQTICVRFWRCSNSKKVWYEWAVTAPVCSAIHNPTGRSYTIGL
Chain of PRMT5 (Q9BQA1 whole entry partner): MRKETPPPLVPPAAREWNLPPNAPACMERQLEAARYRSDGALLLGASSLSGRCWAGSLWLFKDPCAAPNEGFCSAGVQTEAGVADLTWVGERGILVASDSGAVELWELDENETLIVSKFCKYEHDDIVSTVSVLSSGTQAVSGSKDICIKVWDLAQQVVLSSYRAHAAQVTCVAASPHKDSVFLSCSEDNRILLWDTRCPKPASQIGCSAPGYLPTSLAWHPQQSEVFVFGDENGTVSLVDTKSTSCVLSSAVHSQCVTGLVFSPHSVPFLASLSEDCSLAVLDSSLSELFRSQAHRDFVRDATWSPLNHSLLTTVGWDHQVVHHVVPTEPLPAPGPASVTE
T1 sequence (P08684 whole entry): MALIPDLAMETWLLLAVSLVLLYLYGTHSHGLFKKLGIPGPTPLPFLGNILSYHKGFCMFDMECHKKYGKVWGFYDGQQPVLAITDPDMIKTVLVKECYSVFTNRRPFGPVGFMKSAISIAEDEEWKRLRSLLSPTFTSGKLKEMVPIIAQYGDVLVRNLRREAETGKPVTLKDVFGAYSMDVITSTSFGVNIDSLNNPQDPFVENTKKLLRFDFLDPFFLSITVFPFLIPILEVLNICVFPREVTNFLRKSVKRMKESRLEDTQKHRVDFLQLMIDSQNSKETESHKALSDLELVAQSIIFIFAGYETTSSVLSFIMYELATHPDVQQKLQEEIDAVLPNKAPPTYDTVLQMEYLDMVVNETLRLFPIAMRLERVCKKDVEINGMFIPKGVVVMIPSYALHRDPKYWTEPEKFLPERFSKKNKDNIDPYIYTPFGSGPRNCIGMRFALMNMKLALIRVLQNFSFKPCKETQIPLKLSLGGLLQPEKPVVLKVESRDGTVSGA

Compound `CN(Cc1ccc2c(c1)OC(F)(F)O2)C(=O)c1cc2c(cc1F)nc(N)c1cnn(C)c12` [Example I-1] has an IC50 (PRMT5) of 48.5 nM, an EC50 (HCT-116) of 3230 nM and an EC50 (HCT-116-MTAP^-/-) of 4.2 nM. It also gave an EC50 (A549) of 41.8 nM, an EC50 (SDMA [1]) of 220 nM and an EC50 (SDMA [2]) of 1.5 nM. It also gave an EC50 (SDMA [3]) of 1.4 nM, an AUC(0-inf) [4, 5] of 5.69 µM·h and an AUC(0-t) [4, 5] of 5.45 µM·h. For the same compound, the C0 [4, 5] was 3.52 µM, the MRT inf [4, 5] was 2.3 h and the Vd ([4]; male, Balb/c, plasma, 2 mg/kg, IV 2mpk, read-out: Vz) was 2 L/kg. For the same compound, the AUC(0-inf) [4, 6] was 18.4 µM·h, the AUC(0-t) [4, 6] was 18.1 µM·h and the Cmax [4, 6] was 3.24 µM. The Tmax [4, 6] was 1 h, the MRT inf [4, 6] was 5.5 h and the CLz ([4]; IV 2mpk) was 13 mL/min/kg. For the same compound, the “R_AUC(t/∞)” value ([4]; IV 2mpk) was 95.8%, the t1/2z ([4]; IV 2mpk) was 1.8 h and the “R_AUC(t/∞)” value ([4]; PO 10mpk) was 98.3%. The t1/2z ([4]; PO 10mpk) was 4.1 h, the F ([4]; PO 10mpk vs IV 2mpk) was 64.7% and the “Day 28 TGI” value (HCT-116-MTAP^-/- cells) was 85%.
For `Cn1ncc2c(N)nc3cnc(C(=O)N(Cc4ccc5c(c4)OC(F)(F)O5)C4CC4)cc3c21` [Example I-37], the EC50 (HCT-116) was 545 nM, the EC50 (HCT-116-MTAP^-/-) was 10.1 nM and the EC50 (A549) was 72.7 nM. The EC50 (SDMA [1]) was 205 nM, the EC50 (SDMA [2]) was 1.9 nM and the EC50 (SDMA [3]) was 2.7 nM. For the same compound, the “Day 31 TGI” value (NCI-H838 cells; 10 mpk PO QD) was 58%, the “Day 31 TGI” value (NCI-H838 cells; 30 mpk PO QD) was 71% and the “Day 31 TGI” value (NCI-H838 cells; 100 mpk PO QD) was 104%. The IC50 (CYP450 3A4) was greater than 10000 nM.
